The values that follow come from PubChem BioAssay AID328 (DTP/NCI, 2004).

Each structure is given as a SMILES string. Toxic doses and inconclusive results are not listed.

For this assay, the system named is BDF1 mice, P388 leukemia ip, median survival T/C. The experiment in a line: NCI In Vivo Anticancer Drug Screen. Data for tumor model P388 Leukemia (intraperitoneal) in B6D2F1 (BDF1) mice. The settings on record: endpoint: median survival time, higher = longer survival. In a few lines:
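Survival ratio, drug arm over vehicle arm, in mice with a transplanted tumour.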

[1] abbreviates: dose: 200.0 mg/kg/injection, schedule: Q04DX003 (ip), vehicle: saline with Tween-80.
Setting [2] is: dose: 400.0 mg/kg/injection, schedule: Q04DX003 (ip), vehicle: saline with Tween-80.
Where [3] appears, read: dose: 100.0 mg/kg/injection, schedule: Q01DX009 (ip), vehicle: saline with Tween-80.
The mark [4] stands for this setting: dose: 50.0 mg/kg/injection, schedule: Q01DX009 (ip), vehicle: saline.
Setting [5] is: dose: 100.0 mg/kg/injection, schedule: Q01DX009 (ip), vehicle: saline.
The mark [6] stands for this setting: dose: 25.0 mg/kg/injection, schedule: Q04DX003 (ip), vehicle: saline sonified.
[7] abbreviates: dose: 50.0 mg/kg/injection, schedule: Q01DX009 (ip), vehicle: Klucel (hydroxypropylcellulose) (HPC).
[8] abbreviates: dose: 100.0 mg/kg/injection, schedule: Q01DX009 (ip), vehicle: Klucel (hydroxypropylcellulose) (HPC).
Where [9] appears, read: dose: 200.0 mg/kg/injection, schedule: Q01DX009 (ip), vehicle: Klucel (hydroxypropylcellulose) (HPC).
Where [10] appears, read: dose: 50.0 mg/kg/injection, schedule: Q01DX009 (ip), vehicle: saline with Tween-80.
Setting [11] is: dose: 200.0 mg/kg/injection, schedule: Q01DX009 (ip), vehicle: saline with Tween-80.

`CCCCCCCNC(=O)Nc1cc([N+](=O)[O-])ccc1C`: the T/C is, setting by setting: (dose: 100.0 mg/kg/injection, schedule: Q04DX003 (ip), vehicle: saline with Tween-80) 100 % of control; under setting [1], 100 % of control; under setting [2], 104 % of control.
For `O=C1c2ccc(O)cc2C(=O)c2ccc(O)cc21`, the T/C is, setting by setting: (dose: 66.0 mg/kg/injection, schedule: Q01DX009 (ip), vehicle: saline with Tween-80) 109 % of control; under setting [3], 109 % of control; (dose: 150.0 mg/kg/injection, schedule: Q01DX009 (ip), vehicle: saline with Tween-80) 109 % of control; (dose: 400.0 mg/kg/injection, schedule: Q01DX009 (ip), vehicle: saline with Tween-80) 120 % of control.
With `Cc1cccc(OS(=O)(=O)c2ccccc2[N+](=O)[O-])c1`, the T/C (dose: 100.0 mg/kg/injection, schedule: Q01DX001 (ip), vehicle: saline sonified) is 100 % of control; the T/C (dose: 200.0 mg/kg/injection, schedule: Q01DX001 (ip), vehicle: saline sonified) is 110 % of control; the T/C (dose: 400.0 mg/kg/injection, schedule: Q01DX001 (ip), vehicle: saline sonified) was 100 % of control.
Regarding `CC1COB(c2ccccc2)OCC(C)N1CNC(=O)C1=C(O)C2(O)C(O)=C3C(=O)C4C(O)=CC=CC4C(C)(O)C3CC2C(N(C)C)C1=O` (stereo unspecified), the T/C reads like this: under setting [4], 109 % of control; under setting [5], 98 % of control; (dose: 200.0 mg/kg/injection, schedule: Q01DX009 (ip), vehicle: saline) 111 % of control.
Take `NC(=O)C12CCCCC1CCC(=O)C2` (stereo unspecified): the T/C under setting [6] was 105 % of control; the T/C (dose: 50.0 mg/kg/injection, schedule: Q04DX003 (ip), vehicle: saline sonified) is 100 % of control; the T/C (dose: 100.0 mg/kg/injection, schedule: Q04DX003 (ip), vehicle: saline sonified) is 95 % of control.
Regarding `S=C(NNc1ccccc1)Nc1ccccc1`, the T/C is, setting by setting: (dose: 25.0 mg/kg/injection, schedule: Q01DX009 (ip), vehicle: Klucel (hydroxypropylcellulose) (HPC)) 106 % of control; under setting [7], 101 % of control; under setting [8], 96 % of control.
Consider `CN=S(=O)(OCCCCOS(=O)(=NC)c1ccc(C)cc1)c1ccc(C)cc1` (stereo unspecified), for which the T/C under setting [2] was 152 % of control.
On to `CC(/C=N/NC(N)=S)Cc1ccc(C(C)C)cc1` (stereo unspecified), for which the T/C is 110 % of control (dose: 7.0 mg/kg/injection, schedule: Q01DX009 (ip), vehicle: saline with Tween-80); 100 % of control (dose: 7.0 mg/kg/injection, schedule: Q04DX003 (ip), vehicle: saline with Tween-80); 115 % of control (dose: 14.0 mg/kg/injection, schedule: Q01DX009 (ip), vehicle: saline with Tween-80); 104 % of control (dose: 14.0 mg/kg/injection, schedule: Q04DX003 (ip), vehicle: saline with Tween-80); 95 % of control (dose: 28.0 mg/kg/injection, schedule: Q04DX003 (ip), vehicle: saline with Tween-80).
For `Cc1cc(N(CCCl)CCCl)ccc1C=Nc1ccc(F)cc1`, the T/C under setting [2] is 150 % of control and the T/C (dose: 600.0 mg/kg/injection, schedule: Q04DX003 (ip), vehicle: saline with Tween-80) is 179 % of control.
For `O=S1(=O)CCN(C2CCCCCCC2)CC1`, the T/C is 115 % of control under setting [7], 116 % of control under setting [8] and 104 % of control under setting [9].
Take `O=C1CC(SC(=S)C2CCCC2=O)C(=O)O1` (stereo unspecified): the T/C under setting [10] is 122 % of control.
On to `CC12CCC(O)CC1CCC1C2CCC2(C)C(C3=CC(=O)OC3)CCC12` (stereo unspecified), for which the T/C runs as follows: (dose: 140.0 mg/kg/injection, schedule: Q01DX010 (ip), vehicle: carboxymethylcellulose (CMC)) 122 % of control; (dose: 280.0 mg/kg/injection, schedule: Q01DX010 (ip), vehicle: carboxymethylcellulose (CMC)) 122 % of control.
Take `COc1cccc(C2NC(=O)c3c(n[nH]c3N)S2)c1O` (stereo unspecified): the T/C under setting [10] was 103 % of control, the T/C under setting [3] was 99 % of control and the T/C under setting [11] was 103 % of control.
Consider `CSc1ccc(O)c(S)c1`, for which the T/C is 118 % of control under setting [10], 122 % of control under setting [3] and 124 % of control under setting [11].
On to `Cn1c(-c2ccccc2)c2c(c1-c1ccccc1)CCCC2`, for which the T/C runs as follows: (dose: 100.0 mg/kg/injection, schedule: Q04DX002 (ip), vehicle: saline with Tween-80) 88 % of control; (dose: 200.0 mg/kg/injection, schedule: Q04DX002 (ip), vehicle: saline with Tween-80) 87 % of control.
On to `O=NN(CCCl)C(=O)Nc1ccc(Cl)cc1`, for which the T/C was 195 % of control (dose: 8.2 mg/kg/injection, schedule: Q04DX003 (ip), vehicle: saline with Tween-80); 195 % of control (dose: 12.5 mg/kg/injection, schedule: Q04DX003 (ip), vehicle: saline with Tween-80); 200 % of control (dose: 18.75 mg/kg/injection, schedule: Q04DX003 (ip), vehicle: saline with Tween-80).
Consider `Clc1cccc(Cl)c1Br`, for which the T/C runs as follows: (dose: 50.0 mg/kg/injection, schedule: Q04DX003 (ip), vehicle: gum acacia) 95 % of control; under setting [8], 100 % of control; (dose: 100.0 mg/kg/injection, schedule: Q04DX003 (ip), vehicle: Klucel (hydroxypropylcellulose) (HPC)) 88 % of control; (dose: 100.0 mg/kg/injection, schedule: Q04DX003 (ip), vehicle: gum acacia) 108 % of control; under setting [9], 109 % of control; (dose: 200.0 mg/kg/injection, schedule: Q04DX003 (ip), vehicle: gum acacia) 100 % of control. Moreover, the T/C reads like this: (dose: 400.0 mg/kg/injection, schedule: Q01DX009 (ip), vehicle: Klucel (hydroxypropylcellulose) (HPC)) 90 % of control; (dose: 400.0 mg/kg/injection, schedule: Q04DX003 (ip), vehicle: Klucel (hydroxypropylcellulose) (HPC)) 115 % of control.
With `Nc1ncnc2[nH]c(=O)[nH]c12`, the T/C is 104 % of control (dose: 12.5 mg/kg/injection, schedule: Q01DX009 (ip), vehicle: saline with Tween-80); 109 % of control (dose: 25.0 mg/kg/injection, schedule: Q01DX009 (ip), vehicle: saline with Tween-80); 104 % of control under setting [1]; 114 % of control under setting [2].
Regarding `S=P(N1CCCC1)(N1CC1)N1CC1`, the T/C by setting is: (dose: 5.0 mg/kg/injection, schedule: Q01DX009 (ip), vehicle: saline with Tween-80) 158 % of control; (dose: 10.0 mg/kg/injection, schedule: Q01DX009 (ip), vehicle: saline with Tween-80) 104 % of control.
`CC1CCCCN1CC(Cl)Cl` (stereo unspecified): the T/C is 122 % of control under setting [4]; 109 % of control (dose: 50.0 mg/kg/injection, schedule: Q04DX003 (ip), vehicle: saline); 150 % of control under setting [5]; 104 % of control (dose: 100.0 mg/kg/injection, schedule: Q04DX003 (ip), vehicle: saline); 122 % of control (dose: 200.0 mg/kg/injection, schedule: Q04DX003 (ip), vehicle: saline).
For `Clc1cc(CBr)c(Cl)c(Cl)c1CBr`, the T/C was 109 % of control (dose: 6.25 mg/kg/injection, schedule: Q01DX009 (ip), vehicle: Klucel (hydroxypropylcellulose) (HPC)); 100 % of control (dose: 6.25 mg/kg/injection, schedule: Q01DX009 (ip), vehicle: saline); 95 % of control (dose: 6.25 mg/kg/injection, schedule: Q04DX003 (ip), vehicle: saline sonified); 109 % of control (dose: 12.5 mg/kg/injection, schedule: Q01DX009 (ip), vehicle: Klucel (hydroxypropylcellulose) (HPC)); 103 % of control (dose: 12.5 mg/kg/injection, schedule: Q01DX009 (ip), vehicle: saline); 100 % of control (dose: 12.5 mg/kg/injection, schedule: Q04DX003 (ip), vehicle: saline sonified). Further, the T/C was 110 % of control (dose: 25.0 mg/kg/injection, schedule: Q01DX009 (ip), vehicle: saline) and 100 % of control under setting [6].
